pIC50: −log10 of the molar value.
Target: Pim-1 (Homo sapiens, UniProt P11309)
Assay: X-ray crystal structure
Assay type: biochemical

- pIC50: ~5.52
Structure (SMILES): O=C/C=C/c1ccccc1O [2′-HCA]

Reference: PMC4490130 (Cancer research, 2015)
